Experimental findings from patent publication US5834461A, “Tricyclic benzazepine vasopressin antagonists” (American Cyanamid Company, priority 1997, dated 1998) are described below.

Molecules are shown by their SMILES.

For experiment [1], the target named is T1, vasopressin V1 receptor subtype in human platelet membranes (Homo sapiens, UniProt P37288).
T1 construct: tissue Hudson Valley Blood Services; host or cells: human blood platelets (frozen platelet rich plasma)
Kind of experiment: Binding to Vasopressin V1 Receptor Subtype in Human Platelet Membranes. To be noted: for IC50: human platelet V1 (*). Here is the method:
(a) Platelet Membrane Preparation:
Frozen platelet rich plasma (PRP), received from the Hudson Valley Blood Services, are thawed to room temperature. (Platelet Source: Hudson Valley Blood Services, Westchester Medical Center, Valhalla, N.Y.). The tubes containing the PRP are centrifuged at 16,000×g for 10 min. at 4° C. and the supernatant fluid discarded. The platelets resuspended in an equal volume of 50.0 mM Tris.HCl, pH 7.5 containing 120 mM NaCl and 20.0 mM EDTA. The suspension is recentrifuged at 16,000×g for 10 min. This washing step is repeated one more time. The wash discarded and the lysed pellets homogenized in low ionic strength buffer of Tris.HCl, 5.0 mM, pH 7.5 containing 5.0 mM EDTA. The homogenate is centrifuged at 39,000×g for 10 min. The resulting pellet is resuspended in Tris.HCl buffer, 70.0 mM, pH 7.5 and recentrifuged at 39,000×g for 10 min. The final pellet is resuspended in 50.0 mM Tris.HCl buffer pH 7.4 containing 120 mM NaCl and 5.0 mM KCl to give 1.0-2.0 mg protein per ml of suspension.
(b) Binding to Vasopressin V1 Receptor Subtype in Human Platelet Membranes:
In wells of a 96 well format microtiter plate, add 100 μl of 50.0 mM Tris.HCl buffer containing 0.2% BSA and a mixture of protease inhibitors (aprotinin, leupeptin etc.). Then add 20 μl of [^3 H]Ligand (Manning or Arg^8 Vasopressin), to give final concentrations ranging from 0.01 to 10.0 nM. Initiate the binding by adding 80.0 μl of platelet suspension (approx. 100 μg protein). Mix all reagents by pipetting the mixture up and down a few times. Non specific binding is measured in the presence of 1.0 μM of unlabeled ligand (Manning or Arg^8 Vasopressin). Let the mixture stand undisturbed at room temperature for ninety (90) min. Upon this time, rapidly filter off the incubate under vacuum suction over GF/B filters, using a Brandel Harvester. The radioactivity caught on the filter disks is determined by the addition of liquid scintillant and counting in a liquid scintillator.

Experiment [2] addresses T2, human V2 vasopressin receptor (Homo sapiens, UniProt P30518).
T2 construct: expressed in transfected cells; host or cells: mouse fibroblast cell line LV-2
Kind of experiment: Binding to Membranes of Mouse Fibroblast Cell Line (LV-2) Transfected with the cDNA Expressing the Human V2 Vasopressin Receptor. To be noted: V2 column, printed with one *, read-out: V2, % at concentration in brackets.

In experiment [3] the target is T2, human V2 vasopressin receptor. Described as above. To be noted: for IC50: LV-2 cells. The protocol:
Flasks of 175 ml capacity, containing attached cells grown to confluence, are cleared of culture medium by aspiration. The flasks containing the attached cells are rinsed with 2×5 ml of phosphate buffered saline (PBS) and the liquid aspirated off each time. Finally, 5 ml of an enzyme free dissociation Hank's based solution (Specialty Media, Inc., Lafayette, N.J.) is added and the flasks are left undisturbed for 2 min. The content of all flasks is poured into a centrifuge tube and the cells pelleted at 300×g for 15 min. The Hank's based solution is aspirated off and the cells homogenized with a polytron at setting #6 for 10 sec in 10.0 mM Tris.HCl buffer, pH 7.4 containing 0.25M sucrose and 1.0 mM EDTA. The homogenate is centrifuged at 1500×g for 10 min to remove ghost membranes. The supernatant fluid is centrifuged at 100,000×g for 60 min to pellet the receptor protein. Upon completion, the pellet is resuspended in a small volume of 50.0 mM Tris.HCl buffer, pH 7.4. The protein content is determined by the Lowry method and the receptor membranes are suspended in 50.0 mM Tris.HCl buffer containing 0.1 mM phenylmethylsulfonylfluoride (PMSF) and 0.2% bovine serum albumin (BSA) to give 2.5 mg receptor protein per ml of suspension.
For binding experiments, the following is added in μl volume to wells of a 96 well format of a microtiter plate: 100.0 μl of 100.0 mM Tris.HCl buffer containing 0.2% heat inactivated BSA, 10.0 mM MgCl2 and a mixture of protease inhibitors: leupeptin, 1.0 mg %; aprotinin, 1.0 mg %; 1,10-phenanthroline, 2.0 mg %; trypsin inhibitor, 10.0 mg % and 0.1 mM PMSF., 20.0 μl of [^3 H] Arginine^8, vasopressin (S.A. 75.0 Ci/mmole) at 0.8 nM and the reaction initiated by the addition of 80.0 μl of tissue membranes ([…]).
The plates are left undisturbed on the bench top for 120 min to reach equilibrium. Non specific binding is assessed in the presence of 1.0 μM of unlabeled ligand, added in 20 μl volume. For test compounds, these are solubilized in 50% dimethylsulfoxide (DMSO) and added in 20.0 μl volume to a final incubation volume of 200 μl. Upon completion of binding, the content of each well is filtered off, using a Brandel® cell Harvester (Gaithersburg, Md.). The radioactivity trapped on the filter disk by the ligand-receptor complex is assessed by liquid scintillation counting in a Packard LS Counter, with an efficiency of 65% for tritium.

The next experiment deals with vasopressin V2. Kind of experiment: Vasopressin V2 Antagonist Activity in Conscious Hydrated Rats (diuretic effect). To be noted: 10 mg/kg orally, AVP 0.4 μg/kg i.p. In kind it is in vivo, normal Sprague-Dawley rats. Put shortly:
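Conscious rats were dosed orally at 0.1–100 mg/kg, and AVP 0.4 μg/kg i.p. in peanut oil followed 1 h later. Urine volume, osmolality and Na/K/Cl were compared against AVP-treated controls, with non-AVP rats as water-loading controls.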

Another experiment deals with vasopressin V1. Kind of experiment: Vasopressin V1 Antagonist Activity in Conscious Rats (vasopressin vasopressor response). In kind it is in vivo, rat (spontaneously hypertensive rats). To be noted: 10 mg/kg i.v. Put shortly:
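Conscious rats had the ventral caudal tail artery cannulated into the lower abdominal aorta under local procaine anesthesia, plus a caudal vein cannula for intravenous dosing. Pulsatile blood pressure was recorded via a Statham P23Db transducer. Vasopressor responses to vasopressin injections were measured before and after compound dosing, with percent antagonism calculated relative to the pre-drug response taken as 100%.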

T1 sequence (P37288 whole entry): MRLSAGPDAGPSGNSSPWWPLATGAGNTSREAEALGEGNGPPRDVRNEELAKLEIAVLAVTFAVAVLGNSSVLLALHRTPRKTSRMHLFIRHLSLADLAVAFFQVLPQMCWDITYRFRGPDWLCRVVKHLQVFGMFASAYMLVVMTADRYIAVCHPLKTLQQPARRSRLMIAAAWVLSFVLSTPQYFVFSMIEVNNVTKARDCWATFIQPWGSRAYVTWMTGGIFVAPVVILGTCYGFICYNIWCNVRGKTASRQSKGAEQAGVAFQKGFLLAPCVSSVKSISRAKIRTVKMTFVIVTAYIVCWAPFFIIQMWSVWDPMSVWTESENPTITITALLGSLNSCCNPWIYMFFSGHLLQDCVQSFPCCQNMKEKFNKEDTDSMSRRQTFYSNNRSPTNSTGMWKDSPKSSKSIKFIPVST
T2 sequence (P30518 whole entry): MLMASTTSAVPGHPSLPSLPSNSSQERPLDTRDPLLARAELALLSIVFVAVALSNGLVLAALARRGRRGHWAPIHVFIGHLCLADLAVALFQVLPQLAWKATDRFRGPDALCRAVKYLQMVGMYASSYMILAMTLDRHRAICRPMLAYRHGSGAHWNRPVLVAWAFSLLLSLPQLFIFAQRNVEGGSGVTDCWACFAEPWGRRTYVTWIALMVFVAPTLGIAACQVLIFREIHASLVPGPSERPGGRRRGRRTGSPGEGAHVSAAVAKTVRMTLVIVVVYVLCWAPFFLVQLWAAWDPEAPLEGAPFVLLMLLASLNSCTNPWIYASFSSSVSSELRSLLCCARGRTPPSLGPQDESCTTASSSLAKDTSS

Consider `Cc1ccccc1NC(=O)Nc1ccc(C(=O)N2Cc3ccccc3Cc3ccccc32)cc1` [Example 122, 6,11-Dihydro-5-[4-[[[(2-methylphenyl)amino]carbonyl]-amino]benzoyl]-5H-dibenz[b,e]azepine], for which the inhibition at 10 µM in experiment [1] (1.5 h, 10 μM, human platelet (*), read-out: *V1, % at concentration in brackets) stood at 95%; in experiment [2], 92%.
Take `O=C(O)Cn1cc2c(n1)-c1ccccc1N(C(=O)c1ccc(NC(=O)c3ccc(Cl)cc3Cl)cc1)CC2` [Example 451, 6-[4-[(2,4-Dichlorobenzoyl)amino]benzoyl]-5,6-dihydropyrazolo[4,3-d][1]benzazepine-2(4H)-acetic acid]: the inhibition at 1 µM in experiment [1] (1.5 h, 1 μM, human platelet (*), read-out: *V1, % at concentration in brackets) is 35%. In experiment [3] (1 μM, read-out: **V2, % at concentration in brackets), the inhibition at 1 µM was found to be 69%. For the same compound, in the experiment on vasopressin V2, the Osmolality is listed as 989 mOsm/kg and the “Urine Volume” value turned out to be 5.3 ml/4 hrs.
`CCOC(=O)Cn1cc2c(n1)-c1ccccc1N(C(=O)c1ccc(NC(=O)c3ccc(Cl)cc3Cl)cc1)CC2` [Example 452, Ethyl 6-[4-[(2,4-dichlorobenzoyl)amino]benzoyl]-5,6-dihydropyrazolo[4,3-d][1]benzazepine-2(4H)-acetate] registered a 50% inhibitory concentration (IC50) in experiment [1] of 470 nM. In experiment [3], this compound gave an IC50 of 10 nM. Moreover, in the experiment on vasopressin V2, the Osmolality came out at 584 mOsm/kg and the “Urine Volume” value was 7.8 ml/4 hrs.
With `Cc1ccccc1C(=O)Nc1ccc(C(=O)N2Cc3ccsc3Cc3ccccc32)cc1` [Example 456, N-[4-[(4,10-Dihydro-5H-thieno[3,2-c][1]benzazepin-5-yl)carbonyl]phenyl]-2-methylbenzamide], the concentration for half-maximal inhibition (IC50) in experiment [1] worked out at 36 nM. In experiment [3], this compound returned a half-inhibitory concentration (IC50) of 9 nM. Also, in the experiment on vasopressin V2, the Osmolality was 1209 mOsm/kg and the “Urine Volume” value is on record as 4.8 ml/4 hrs.
`Cc1ccccc1C(=O)Nc1ccc(C(=O)N2Cc3sccc3Cc3ccccc32)cc1` [Example 458] came in with an IC50 in experiment [1] of 1.8 nM. In experiment [3], this compound came in with an IC50 of 0.71 nM. Moreover, in the experiment on vasopressin V2, the Osmolality is given as 537 mOsm/kg and the “Urine Volume” value came to 13.5 ml/4 hrs. In the experiment on vasopressin V1, the “MAX % Inhibition” value is recorded as 77% and the “Time of max % inhibition” value worked out at 180 min.

For orientation: IC50 means the concentration that gives 50% inhibition. Read a high IC50 as a need for much substance.
